Tested on: rIGFBP-5
Assay: Ligand blotting with radiolabeled IGF-II, activity of PAPP-A2 against IGFBP-5
Type: biochemical
Details: medium from cells transfected with pPA2
Protocol: Medium from 293T cells transfected with empty vector (−), or cDNA encoding PAPP-A2 (pPA2) (+) was incubated with each of the six IGFBPs (BP1–BP6), and the activity was assessed by ligand blotting using radiolabeled IGF-II.
Ligand blotting (Conover et al., 1993, J Clin Invest 91, 1129–37) with radiolabeled IGF-II (Bachem) was used to assay for activity against IGFBP-1 (from HepG2 conditioned medium), rIGFBP-2 (GroPep), rIGFBP-3 (gift of D. Powell), rIGFBP-4 (Austral), rIGFBP-5 (gift of D. Andress), and rIGFBP-6 (Austral). […] Experiments were carried out with media from cells transfected with pPA2 or empty vector.

PAPP-A2: recombinant pregnancy-associated plasma protein-A2, SEQ ID NO:2, metzincin metalloproteinase expressed in 293T cells
Dependence of cleavage on IGF: independent of the presence of IGF

From patent US7083940B2, “Pregnancy-associated plasma protein-A2 (PAPP-A2)” (Como Biotech ApS, priority 2000, dated 2006)
